The subject of one data set is vaccinia virus. Conditions: BSC40 cells, 24 hours at 37°C, cited from earlier work.
The subject of data set [1] is retroviral vector pWET-TAC ψ2. The experiment in a line: Infection of NIH-3T3 cells by retroviral vector pWeT-TAC ψ2, count of G418-resistant colonies. It is filed as cell-based. As to conditions: for inhibition at 1000 µM / activity at 1000 µM: 1mM; for activity at 1000 µM / activity at 3000 µM / activity at 2000 µM: read-out: % of control colonies counted; for inhibition of G418-resistant colony formation (in words): concentrations of Table 1 (1mM to 3mM); for inhibition at 3000 µM / activity at 3000 µM: 3mM; for inhibition at 2000 µM / activity at 2000 µM: 2mM.

Data set [2] deals with integration of foreign DNA into the genome. As to conditions: calcium phosphate mediated DNA transfection; cited from earlier work.
Data set [3] in a line: in vitro. Conditions: human, t-cell line.
For data set [4], the system named is MPSV^28. Briefly: Southern hybridisation of genomic DNA of NIH/3T3 cells after infection with MPSV^28. It is filed as cell-based, murine myeloproliferative sarcoma virus. As to conditions: 2mM, most obvious at 24 and 48 hours after infection.
The subject of a further data set is monocyte adapted HIV-1. The experiment in a line: microbe, parasite or virus in culture. It is filed as cell-based. As to conditions: for minimal effective concentration: Human immunodeficiency virus 1, Monocyte, 336 h, read-out: Minimum Antiviral Concentration; for Therapeutic Index: PBMC's with M-virus, * partial inhibition only; for virus production (P24 antigen level in supernatant): virus M and PBMC's, Day 14, all concentrations tested.

Another data set relates to T-cell adapted HIV-1. The experiment in a line: microbe, parasite or virus in culture. The class given is cell-based. As to conditions: for minimal effective concentration: Human immunodeficiency virus 1, T-cell, 336 h, read-out: Minimum Antiviral Concentration; for Therapeutic Index: T-Cell Line with T-virus; for antiviral activity (P24 antigen level in supernatant): virus T and the T-cell line, Day 14.

A short description of data set [5]: in vitro. As to conditions: human, pbmc.
In data set [6] the test system is MPSV^28. The experiment in a line: Dot-blot analysis of high molecular weight DNA of HL-60 cells after infection with MPSV^28. It is filed as cell-based, murine myeloproliferative sarcoma virus. As to conditions: 1.5mM, 72 hours after infection. Here is the method: In this case cells were pretreated with 0.4% DMSO and […] polybrene for 24 hours. At the time of infection this medium was removed and fresh medium containing the same concentration of DMSO and polybrene, plus 5 x 10^5 c.f.u. of the vector were added to 10^7 cells either in the presence (+) or absence (-) of the inhibitor (5 x 10^6 cells for each condition). 24 hours after infection the medium was removed and cells were placed in fresh medium containing no DMSO or polybrene. Cells were incubated in this medium for another 48 hours before being harvested (approximately 2 x 10^7 cells with, and 2 x 10^7 without the inhibitor).

The subject of data set [7] is AZT-resistant HIV isolate. The class given is cell-based, HIV-1.
Data set [8] in a line: in vitro. Conditions: human.
For data set [9], the system named is monocyte adapted laboratory strain of HIV. The class given is cell-based, HIV-1. Conditions: monocyte line, Day 7.
For data set [10], the system named is continuous human T-cell line. The experiment in a line: Cell toxicity assay, trypan blue exclusion (Example 6), T-cell line. As to conditions: 150µM, Days 1, 6 and 10.
For data set [11], the system named is phytohaemagglutinin (PHA) stimulated peripheral blood mononuclear cells (PBMC). The experiment in a line: Cell toxicity assay, trypan blue exclusion (Example 6), PBMC. Conditions: 150µM; PBMC's; Days 1, 6 and 10.
The mark [12] stands for this setting: NIH3T3, NIH-3T3, G418-resistant colonies, read-out: % inhibition achieved.
The mark [13] stands for this setting: NIH3T3, NIH-3T3, G418-resistant colonies.

Structures are written as SMILES. Read-outs that look alike come from different tables or passages of the source.

On to `NC(=O)c1cccnc1` [nicotinamide], for which the viral replication result in the data set on vaccinia virus (20mM) is listed as “affected”. In addition, the “decrease of viral replication” value in the data set on vaccinia virus (60mM) is on record as “greater than 99%”.
For `NC(=O)c1ccc(NC=O)cc1` [4-formylaminobenzamide, reference compound], the inhibition (in general, the share of the control response that was lost under treatment) at 1000 µM in data set [1] (setting [12]) was found to be 8%. For the same compound, the activity at 1000 µM in data set [1] (setting [13]) stood at 92%. Also, in [1], the “inhibition of G418-resistant colony formation (in words)” value (“inhibition … (in words)” for short) is listed as “did not inhibit”.
For `NC(=O)c1cccc(NC=O)c1` [3-N-formylaminobenzamide] the same measures were 64%, 36% and “even greater inhibition”.
Turning to `Nc1cccc(C(=O)O)c1` [3-aminobenzoic acid, reference compound], the inhibition at 3000 µM in data set [1] (setting [12]) was determined as 10%. Further, the activity at 3000 µM in data set [1] (setting [13]) came out at 90%. The “inhibition … (in words)” value in data set [1] is given as “did not inhibit”.
As to `NC(=O)c1cccc(N)c1` [3-aminobenzamide], the “integration of foreign DNA into the genome” value in data set [2] is recorded as “blocked”. Further, the “inhibition of the formation of G418 resistant colonies” value in [1] (1mM inhibitor) is given as “small degree of inhibition”. The inhibition at 3000 µM in [1] (setting [12]) turned out to be 45%; in data set [1] (NIH3T3, read-out: inhibition of the formation of G418 resistant colonies), 50%. Moreover, the activity at 3000 µM in data set [1] (setting [13]) is 55%. In addition, in data set [1] (NIH3T3, 5mM, read-out: inhibition of the formation of G418 resistant colonies), the inhibition at 5000 µM stood at 60%. Also, the “inhibition … (in words)” value in [1] was “significant degree of inhibition”.
`COc1cccc(C(N)=O)c1` [3-methoxybenzamide]: the “integration of foreign DNA into the genome” value in [2] is listed as “blocked”. In the data set “in vitro [3]”, the MNTC was determined as 3 mM. The inhibition at 2000 µM in data set [1] (setting [12]) amounted to 82%. Further, the activity at 2000 µM in data set [1] (setting [13]) amounted to 18%. Also, in data set [1], the “inhibition … (in words)” value is “very effective”. Further, the “appearance of complete proviral DNA in the genomic DNA” value with MPSV^28 [4] is “inhibited”. In the data set on monocyte adapted HIV-1, the minimal effective concentration amounted to 0.19 µM, the “Therapeutic Index” value is reported as >15 800* and the “virus production (P24 antigen level in supernatant)” value is reported as “partially inhibited virus production”. Moreover, in the data set with T-cell adapted HIV-1, the minimal effective concentration was 0.19 µM, the “Therapeutic Index” value is on record as >15 800 and the “antiviral activity (P24 antigen level in supernatant)” value is “showed particular activity”. For the same compound, the MNTC in the data set “in vitro [5]” was found to be 3 mM. Besides, the “appearance of the proviral DNA” value with MPSV^28 [6] is “inhibited”.
In the case of `NC(=O)c1ccc(N)cc1` [4-aminobenzamide, reference compound], the inhibition at 3000 µM in [1] (setting [12]) turned out to be 12%. Also, the activity at 3000 µM in data set [1] (setting [13]) came out at 88%. In addition, in data set [1], the “inhibition … (in words)” value is reported as “did not inhibit”.
`O=C1NC(CCCl)Oc2ccccc21` (stereo not drawn) [Chlorthenoxazine, chlorthenoxazine]: the “antiviral activity (supernatant p24 antigen)” value was “possibly active” in data set [7] (0.15µM, PBMC's, Day 7, no smooth dose response); “active and has a clear dose response” in data set [9] (concentrations tested 150 to 0.015µM). The viability – broadly, a per cent measure of how many cells are alive, often set against a control – at 336 h in “in vitro [8]” was above 50%.
`Cc1cn([C@H]2C[C@H](N=[N+]=[N-])[C@@H](CO)O2)c(=O)[nH]c1=O` [AZT, 3'-azido-2',3'-dideoxythymidine, reference compound] displayed an MNTC in “in vitro [3]” of 1 mM. Moreover, in data set [10], the “toxicity (viable counts)” value is on record as “non-toxic”. Besides, in data set [7], the “virus inhibition (supernatant p24 antigen)” value is reported as “inhibited completely” and the “virus suppression (supernatant p24 antigen)” value is “did not suppress the virus”. For the same compound, in the data set with monocyte adapted HIV-1, the minimal effective concentration amounted to 0.007 µM, the “Therapeutic Index” value is 142 900 and the “virus production (P24 antigen level in supernatant)” value was “inhibited virus with a good dose response”. In the data set with T-cell adapted HIV-1, the minimal effective concentration was 0.007 µM, the “Therapeutic Index” value was 142 900 and the “antiviral activity (P24 antigen level in supernatant)” value is “inhibited virus with a good dose response”. Besides, the “antiviral activity (supernatant p24 antigen)” value in data set [9] (0.15µM) is given as “significant antiviral activity”. Besides, the MNTC in “in vitro [5]” came to 1 mM. In addition, the “toxicity (viable counts)” value in data set [11] is listed as “non-toxic”.
As for `COc1ccc(C(N)=O)cc1` [4-methoxybenzamide, reference compound], in data set [1] (setting [12]), the inhibition at 2000 µM worked out at 15%. Further, the activity at 2000 µM in data set [1] (setting [13]) came to 85%. In addition, the “inhibition … (in words)” value in [1] is listed as “did not inhibit”.
